The source of these data is patent US20240024333A1, “USE OF SMALL MOLECULE FAK ACTIVATORS TO PROMOTE MUCOSAL HEALING” (Regents of the University of Minnesota, priority 2020, published 2024).

“Also recorded” adds a separate entry of the source. Where two headings read alike, the source gives them in different places.

For data set [1] the following is noted: over 8 weeks; cited from earlier work.
Another data set addresses T1, FAK (Homo sapiens, UniProt Q05397).
T1 construct: endogenous in cells; host or cells: Caco-2 (human, ATCC)
The data set can be described thus: Cell-based FAK-Tyr-397 activation (Western blot, Caco-2 cells). Particulars: for FAK activation / FAK-Tyr-397 phosphorylation (in words): vs. DMSO vehicle control; for FAK-Tyr-397/FAK fold change: Cell-based FAK-Tyr-397 activation. Here is the method: Human Caco-2 cells were from ATCC (Manassas, VA) and maintained in Dulbecco's Modified Essential Eagle's Medium supplemented with 10% FBS as described by us previously 25. 80-90% confluent Caco-2 cells were seeded into cell culture plates pacificated with 1% heat inactivated bovine serum albumin to prevent adhesion and avoid adhesion-associated background FAK activation. Suspended cells were then treated with DMSO (0.1%) or small molecules for 1 hour before harvesting for Western blotting.
Cells were lysed and protein concentration was determined via bicinchoninic acid protein assay (Thermo Fisher, Rockford, IL). […] Images were taken using a LICOR-Odyssey-Fc imaging system (LI-COR Biosciences, Lincoln, NE).
A general note: In western blotting, separated proteins are transferred to a membrane and probed.

In data set [2] the test system is intestinal mucosal ulcers. The data set can be described thus: Intestinal mucosal healing in vivo (model not given). Set-up: species or system mice. The following applies: mouse.
A further data set deals with T2, Pyk2 (Homo sapiens, UniProt Q14289).
T2 construct: endogenous in cells; host or cells: Caco-2
The data set is described as follows: Pyk2 activation in intact cells. The data set is classed as cell-based.

A further data set deals with Caco-2 cells. The data set is described as follows: Caco-2 monolayer wound closure assay. The data set is classed as cell-based, human. The following applies: for monolayer wound closure / epithelial sheet migration (in words): in vitro, 24 hours. Here is the method:
Caco-2 cells were seeded at 75-80% confluence into collagen I coated 6-well plates. When the cells reached 100% confluence, wounds were made in the monolayers with non-barrier autoclaved tips. Wound images were captured using an inverted light microscope (OLYMPUS CK2, Center Valley, PA) at 0 hours and 24 hours after treatment with DMSO or small molecules. Wound areas were measured with Image J software.

The target in the next data set is T3, Src (Homo sapiens, UniProt P12931).
T3 construct: endogenous in cells; host or cells: Caco-2
The data set is described as follows: Src activation in intact cells. The data set is classed as cell-based.

Data set [3] relates to ischemic ileal mucosal ulcers. The data set can be described thus: Ischemic ileal ulcer model (acetic-acid-soaked discs on serosa). The class given is in vivo, mice. Particulars: mice; 40: 30 mg/kg/day by osmotic minipump, 4 days; 30 mg/kg/day.
Data set [4] in a line: B/P ratio and blood-brain barrier crossing. The class given is in vivo. Particulars: in vivo.
The test system of data set [5] is SH-SY5Y human neuronal cells. The data set is described as follows: Cytotoxicity in SH-SY5Y cells. The class given is cell-based.
For data set [6] the following is noted: mouse, in vivo; for course of plasma levels after enteral dosing (in words): 10 mg/kg.
Data set [7] has as its system IMR-90 human pulmonary fibroblasts. The data set is described as follows: Cytotoxicity in IMR-90 cells. The class given is cell-based.
A short description of a further data set: Solubility. The class given is physicochemical. An excerpt: (§1) The most successful molecules underwent in vitro ADMET assays, including mouse and human metabolic stability, solubility (pH 7.4), Caco-2 (permeability), and log D determination. We will evaluate lead candidates for drug-like properties, including aqueous solubility (PBS buffer, pH 7.4), pKa, lipophilicity, chemical stability at pH 1 (the pH of the stomach), pH 6 (small intestine), A-B partitioning (octanol-PBS buffer, pH 7.4), liver microsomal stability as an indication of potential first-pass metabolism (microsomes from mouse and humans), substrate potential for isoforms of human P450 such as CYP3A4, cell permeability (Caco-2 cells), hERG toxicity (cell lines), mutagenesis, and plasma protein binding (mouse & human). […]. Computed physical properties that correlate with good oral bioavailability and cell permeability will be calculated for new compounds throughout the optimization process and will […] also influence lead compound selection as will ligand efficiency (LE) and lipophilic efficiency (LLE). Molecules will be administered by gavage to mice at 30 mg/kg, and we will measure plasma levels at 2 and 4 hours. The most successful molecules in this regard (with the highest levels at 2 and 4 hours) may be further modified by developing combinations of modifications at different parts of the molecule.

For data set [8], the system named is mice. Particulars: mouse, in vivo.
Another data set can be described thus: log D determination. The data set is classed as physicochemical. Particulars: pH 7.4.
Excerpt: as §1

The next data set in a line: Human plasma stability. The data set is classed as in vitro ADME. The following applies: at 6 h.
A further data set addresses hERG (Homo sapiens, UniProt Q12809). The data set can be described thus: hERG toxicity. The following applies: human. The class given is cell-based.
Excerpt: as §1
(Block of hERG is tested as a sign of cardiac risk.)

Another data set in a line: Plasma protein binding. The data set is classed as in vitro ADME.
Excerpt: as §1

Another data set can be described thus: Mini-Ames.
Excerpt: as §1

Data set [9] concerns mice. The data set can be described thus: Tolerability and toxicity in mice.
Data set [10] can be described thus: Cytotoxicity (cells not named). The data set is classed as cell-based.
A short description of another data set: in vivo. Particulars: mouse.

T1 sequence (Q05397 whole entry): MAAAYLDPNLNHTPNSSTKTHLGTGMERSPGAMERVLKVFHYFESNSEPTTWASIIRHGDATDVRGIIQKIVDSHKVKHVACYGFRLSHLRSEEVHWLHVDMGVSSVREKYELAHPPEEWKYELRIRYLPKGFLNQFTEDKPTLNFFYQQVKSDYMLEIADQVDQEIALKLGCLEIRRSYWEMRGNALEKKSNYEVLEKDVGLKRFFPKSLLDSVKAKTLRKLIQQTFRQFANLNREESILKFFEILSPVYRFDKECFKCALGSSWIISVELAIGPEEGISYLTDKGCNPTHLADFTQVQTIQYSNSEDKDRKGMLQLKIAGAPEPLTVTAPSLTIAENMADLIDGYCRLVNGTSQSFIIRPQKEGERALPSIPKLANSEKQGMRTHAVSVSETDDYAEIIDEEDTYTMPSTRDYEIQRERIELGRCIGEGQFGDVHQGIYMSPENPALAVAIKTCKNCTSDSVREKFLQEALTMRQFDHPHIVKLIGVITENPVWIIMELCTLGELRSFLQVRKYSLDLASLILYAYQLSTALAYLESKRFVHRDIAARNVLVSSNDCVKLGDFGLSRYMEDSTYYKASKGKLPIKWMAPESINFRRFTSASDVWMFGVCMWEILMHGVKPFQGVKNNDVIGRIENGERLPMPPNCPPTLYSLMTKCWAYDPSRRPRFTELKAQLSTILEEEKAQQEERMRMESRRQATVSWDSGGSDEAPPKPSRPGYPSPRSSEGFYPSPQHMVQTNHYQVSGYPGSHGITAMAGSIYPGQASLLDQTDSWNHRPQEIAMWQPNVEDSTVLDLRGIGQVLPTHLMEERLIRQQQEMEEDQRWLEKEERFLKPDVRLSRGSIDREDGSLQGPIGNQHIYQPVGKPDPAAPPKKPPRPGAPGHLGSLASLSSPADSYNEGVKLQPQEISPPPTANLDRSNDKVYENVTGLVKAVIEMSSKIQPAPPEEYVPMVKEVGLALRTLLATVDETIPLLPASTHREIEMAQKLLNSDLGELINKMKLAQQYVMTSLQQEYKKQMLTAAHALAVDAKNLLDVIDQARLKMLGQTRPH
T2 sequence (Q14289 whole entry): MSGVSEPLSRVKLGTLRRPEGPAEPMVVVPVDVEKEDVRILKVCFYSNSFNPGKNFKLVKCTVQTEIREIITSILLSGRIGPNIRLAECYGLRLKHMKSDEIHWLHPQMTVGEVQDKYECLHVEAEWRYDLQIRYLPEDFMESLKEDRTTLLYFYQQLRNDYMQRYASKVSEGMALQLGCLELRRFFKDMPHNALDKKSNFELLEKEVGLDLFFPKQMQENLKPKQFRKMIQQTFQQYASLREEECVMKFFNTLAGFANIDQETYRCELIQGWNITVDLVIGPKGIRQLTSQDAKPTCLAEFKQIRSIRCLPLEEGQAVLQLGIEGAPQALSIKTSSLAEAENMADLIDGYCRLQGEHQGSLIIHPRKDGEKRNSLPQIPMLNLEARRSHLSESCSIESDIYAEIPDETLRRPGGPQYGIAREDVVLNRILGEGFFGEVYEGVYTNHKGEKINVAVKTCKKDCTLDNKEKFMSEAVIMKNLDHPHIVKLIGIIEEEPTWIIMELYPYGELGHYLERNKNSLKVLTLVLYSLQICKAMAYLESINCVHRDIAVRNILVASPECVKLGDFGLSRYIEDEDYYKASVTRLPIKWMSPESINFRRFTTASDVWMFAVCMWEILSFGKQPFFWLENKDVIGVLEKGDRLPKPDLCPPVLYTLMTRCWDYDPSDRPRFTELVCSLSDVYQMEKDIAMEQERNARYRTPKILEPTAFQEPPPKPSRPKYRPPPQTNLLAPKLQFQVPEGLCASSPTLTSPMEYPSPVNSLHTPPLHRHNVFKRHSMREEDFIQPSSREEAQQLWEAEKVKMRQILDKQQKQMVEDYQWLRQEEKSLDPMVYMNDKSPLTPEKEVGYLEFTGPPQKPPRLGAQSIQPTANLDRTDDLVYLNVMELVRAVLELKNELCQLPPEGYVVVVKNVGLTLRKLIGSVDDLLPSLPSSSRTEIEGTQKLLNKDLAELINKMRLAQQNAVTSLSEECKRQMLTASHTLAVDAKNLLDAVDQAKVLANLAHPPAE
T3 sequence (P12931 whole entry): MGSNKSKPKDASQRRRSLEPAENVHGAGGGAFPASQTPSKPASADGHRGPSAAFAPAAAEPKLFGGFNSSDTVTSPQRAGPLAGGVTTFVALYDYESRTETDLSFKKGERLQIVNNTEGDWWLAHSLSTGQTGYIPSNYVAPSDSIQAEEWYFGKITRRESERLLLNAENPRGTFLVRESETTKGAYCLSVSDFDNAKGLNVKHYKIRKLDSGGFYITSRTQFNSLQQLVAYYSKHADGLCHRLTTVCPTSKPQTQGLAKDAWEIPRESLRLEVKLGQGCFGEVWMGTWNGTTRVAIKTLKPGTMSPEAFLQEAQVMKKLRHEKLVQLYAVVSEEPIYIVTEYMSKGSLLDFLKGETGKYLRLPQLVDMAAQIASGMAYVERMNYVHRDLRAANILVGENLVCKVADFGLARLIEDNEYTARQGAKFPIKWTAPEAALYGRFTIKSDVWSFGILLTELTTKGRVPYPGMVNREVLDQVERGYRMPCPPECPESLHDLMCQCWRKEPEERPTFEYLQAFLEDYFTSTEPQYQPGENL
hERG, sequence (Q12809 whole entry): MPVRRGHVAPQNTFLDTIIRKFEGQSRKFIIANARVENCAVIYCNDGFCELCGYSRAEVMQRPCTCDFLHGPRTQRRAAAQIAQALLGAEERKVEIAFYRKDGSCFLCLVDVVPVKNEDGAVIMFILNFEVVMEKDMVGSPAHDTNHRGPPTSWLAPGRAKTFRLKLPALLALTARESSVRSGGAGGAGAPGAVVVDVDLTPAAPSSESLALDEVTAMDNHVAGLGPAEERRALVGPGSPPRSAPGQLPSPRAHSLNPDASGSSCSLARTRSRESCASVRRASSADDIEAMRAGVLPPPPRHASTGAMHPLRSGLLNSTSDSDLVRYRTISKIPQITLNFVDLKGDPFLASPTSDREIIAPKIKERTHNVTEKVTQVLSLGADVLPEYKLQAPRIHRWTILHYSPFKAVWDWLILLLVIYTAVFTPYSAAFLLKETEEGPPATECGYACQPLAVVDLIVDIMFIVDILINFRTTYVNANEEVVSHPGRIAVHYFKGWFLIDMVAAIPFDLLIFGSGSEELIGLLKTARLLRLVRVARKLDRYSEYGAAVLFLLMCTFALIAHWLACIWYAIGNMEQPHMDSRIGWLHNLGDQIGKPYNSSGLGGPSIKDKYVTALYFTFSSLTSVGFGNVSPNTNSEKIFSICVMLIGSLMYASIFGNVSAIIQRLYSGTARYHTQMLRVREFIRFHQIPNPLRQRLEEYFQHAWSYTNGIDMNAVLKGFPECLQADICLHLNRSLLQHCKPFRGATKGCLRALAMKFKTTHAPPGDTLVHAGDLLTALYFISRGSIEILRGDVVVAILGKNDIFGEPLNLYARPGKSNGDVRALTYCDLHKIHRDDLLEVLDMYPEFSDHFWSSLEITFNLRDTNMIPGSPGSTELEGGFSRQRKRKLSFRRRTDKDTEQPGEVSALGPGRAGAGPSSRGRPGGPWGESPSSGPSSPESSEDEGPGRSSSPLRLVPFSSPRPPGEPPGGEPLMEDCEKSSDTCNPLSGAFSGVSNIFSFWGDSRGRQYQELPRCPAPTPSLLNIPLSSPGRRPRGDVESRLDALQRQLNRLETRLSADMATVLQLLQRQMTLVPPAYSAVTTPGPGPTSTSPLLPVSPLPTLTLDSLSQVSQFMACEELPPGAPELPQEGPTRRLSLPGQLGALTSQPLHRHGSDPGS

Turning to `CCCCC(C)(O)C/C=C/[C@H]1[C@H](O)CC(=O)[C@@H]1CCCCCCC(=O)OC` (mixture of isomers) [Misoprostol], the serious side effects in data set [1] was 8%.
Take `COc1ccc(C2CCCN2C(=O)Nc2cc(C(F)(F)F)ccc2N2CCOCC2)cc1` (stereo not drawn) [Compound 9]: at FAK, the “concentration as low as which FAK is activated” value is recorded as 10 nM and the “FAK activation / FAK-Tyr-397 phosphorylation (in words)” value was “increased FAK-Tyr 397 phosphorylation”. The “intestinal mucosal healing in vivo (in words)” value in data set [2] is “stimulated”. Moreover, on Pyk2 (intact cells), the “Pyk2 activation (in words)” value is on record as “activating neither”. The “monolayer wound closure / epithelial sheet migration (in words)” value in the data set with Caco-2 cells is recorded as “stimulated monolayer wound closure”. For the same compound, on Src (intact cells), the “Src activation (in words)” value is reported as “activating neither”.
Turning to `COc1ccc(C2CCCN2C(=O)CC(NC(N)=O)c2ccccc2Cl)cc1OC` (stereo not drawn) [Compound 10], the “concentration as low as which FAK is activated” value on FAK is recorded as 10 nM.
For `O=C(Nc1cc(C(F)(F)F)ccc1C1CCOCC1)N1CCCC1c1ccccc1` (stereo not drawn) [Compound 14], at FAK, the FAK-Tyr-397/FAK fold change came out at 1.0 fold change and the “FAK activation / FAK-Tyr-397 phosphorylation (in words)” value was “reduced activation”.
On to `COc1ccc(CC(C)C(=O)Nc2ccc(N(C)C)cc2C)cc1` (stereo not drawn) [Compound 19], for which the “FAK activation / FAK-Tyr-397 phosphorylation (in words)” value on FAK was “does not enhance FAK activation”.
`O=C(Nc1cc(C(F)(F)F)ccc1N1CCOCC1)N1CCCC1C1CCCCC1` (stereo not drawn) [Compound 21]: on FAK, the “concentration level of FAK activation (in words)” value is “nanomolar to picomolar levels” and the “FAK activation / FAK-Tyr-397 phosphorylation (in words)” value is reported as “increased; also recorded: stimulate FAK phosphorylation at remarkably low concentrations”. For the same compound, the “monolayer wound closure / epithelial sheet migration (in words)” value with Caco-2 cells was “promote the healing of intestinal epithelial wounds in vitro”.
For the compound `O=C(Nc1cc(F)ccc1N1CCOCC1)N1CCCC1c1ccncc1` (stereo not drawn) [Compound 25], at FAK, the “FAK activation / FAK-Tyr-397 phosphorylation (in words)” value is “does not impair activity”.
For the compound `COc1ccc(C(CNC(=O)Nc2cc(C(F)(F)F)ccc2N2CCOCC2)N(C)C)cc1` (stereo not drawn) [Compound 31], at FAK, the “FAK activation / FAK-Tyr-397 phosphorylation (in words)” value was “seemed to activate FAK”.
As for `O=C(Nc1cc(C(F)(F)F)ccc1N1CCOCC1)N1CCCC1C1CCCCC1` (stereo not drawn) [Compound 36], the “FAK activation / FAK-Tyr-397 phosphorylation (in words)” value on FAK is “seemed to activate FAK”.
In the case of `O=C(Nc1cc(C(F)(F)F)ccc1N1CCOCC1)N1CCCC1c1ccccc1` (stereo not drawn) [Compound 37], the “FAK activation / FAK-Tyr-397 phosphorylation (in words)” value at FAK is on record as “seemed to activate FAK”.
One may read the half-life as the time in which the quantity being followed falls by half. The low end stands for fast loss, the high end for slow loss. As to `CN(C)C(CNC(=O)Nc1cc(C(F)(F)F)ccc1N1CCOCC1)c1ccncc1` (stereo not drawn) [Compound 40], the “ischemic ulcer healing (in words)” value in data set [3] is on record as “much smaller ulcers; also recorded: acceleration of healing”. The “blood-brain barrier crossing (in words)” value in [4] is reported as “cross the blood-brain barrier”. In addition, the “Cytotoxicity (LD50)” value in data set [5] and in data set [7] (IMR90) was “SYSY (LD50)~1 mM” each time. For the same compound, the “concentration at which cytotoxicity is displayed” value in data set [5] and in data set [7] (IMR-90) was 1000 µM each time. The “cytotoxic concentration as multiple of the 100 pM that activates FAK” value in [5] and in [7] (IMR-90) was 10^7 × each time. For the same compound, the “course of plasma levels after enteral dosing (in words)” value in [6] is listed as “decline by two hours”; in data set [6] (2 h) it was “decrease by 2 hours”. The “plasma level after 240 mg/kg as multiple of therapeutic plasma level” value in data set [6] (1 h) was ~6*10^6 ×. For the same compound, the “water solubility / need of DMSO (in words)” value in “Solubility” is “does not require DMSO; also recorded: truly water soluble”. In the data set on mice [8], the “neurotoxicity (in words)” value is given as “no neurotoxicity was detected”. The “renal/hepatic histology, creatinine, ALT (in words)” value in the data set on mice [8] is “normal”. Moreover, the “serum chemistries (in words)” value with mice [8] (120 mg/kg) is given as “normal”. In the data set “log D determination”, the “log D7.4” value is recorded as “log D7.4 = 2.87”. Also, in “Human plasma stability”, the Human plasma stability was 88.56% at 6 h. Further, the hERG entry on hERG is “hERG > 30 μM”. Besides, at Pyk2 (at 10 μM), the “Pyk2 activation (in words)” value is listed as “does not activate”. Besides, the “wound closure after two 2-hour exposures vs full 24 hours of exposure” value in the data set on Caco-2 cells (100 nM) was “equivalent stimulation of wound closure”. Further, the “wound closure at 24 hours after three-hour exposure vs 24 hours exposure” value in the data set with Caco-2 cells (100 nM, medium changed back after exposure) is given as “same effect as 24 hours”. Besides, in the data set on Caco-2 cells (hydroxyurea present), the “wound closure with proliferation blocked by hydroxyurea (in words)” value was “still stimulates Caco-2 monolayer wound closure”. In addition, the “monolayer wound closure / epithelial sheet migration (in words)” value in the data set with Caco-2 cells is recorded as “stimulates wound closure; also recorded: promotes epithelial monolayer wound healing; also recorded: dose-responsive stimulation”. The Plasma protein binding in “Plasma protein binding” is given as 91.39%. The Mini-Ames result in the data set “Mini-Ames” is “negative”. In addition, in the data set with mice [9], the lethal single dose was found to be 480 mg/kg. Further, the “cytotoxicity (in words)” value in [10] is “no cytotoxicity at 10000× higher than effective doses; also recorded: neither cytotoxic nor carcinogenic”. The concentration at 4 days in the data set “in vivo” (1.25 mg/kg) came to 26 ng/mL. The half-life in “in vivo” (T1/2) is ~1.5 h; in “in vivo” (plasma half-life), 1.5 h. The “Src activation (in words)” value at Src (at 10 μM) is recorded as “does not activate”.
`O=C(Nc1ccccc1N1CCOCC1)N1CCCC1c1ccncc1` (stereo not drawn) [Compound 46]: at FAK, the FAK-Tyr-397/FAK fold change is 1.1 fold change and the “FAK activation / FAK-Tyr-397 phosphorylation (in words)” value is given as “did not induce FAK phosphorylation”.
Taken in the same sequence, the figures for `CCN(C(=O)Nc1ccccc1N1CCOCC1)C(C)c1ccccc1` (stereo not drawn) [Compound 48] were 1.1 fold change and “did not induce FAK phosphorylation”.
Turning to `O=C(Nc1cc(C(F)(F)F)ccc1N1CCOCC1)N1CCCC1c1ccc(O)cc1` (stereo not drawn) [Compound 49], on FAK, the FAK-Tyr-397/FAK fold change is recorded as 1.1 fold change.
